Among the data in ChEMBL document CHEMBL1157539, “Thousands of chemical starting points for antimalarial lead identification” (Nature, 2010) are XC50 values, retold here.

The test system of the test is Plasmodium falciparum. The experiment in a line: GSK_TCMDC: Inhibition of Plasmodium falciparum 3D7 in whole erythrocytes, using parasite LDH activity as an index of growth. Format: functional, organism-based. Particulars: Plasmodium falciparum, 3D7.
The molecule `CCN1CCC(N(Cc2ccc(-c3ccc(C(F)(F)F)cc3)cc2)C(=O)Cn2c(SCc3ccc(F)cc3)nc(=O)c3c2CCC3)CC1` returned an XC50 of 991 nM.

As for `CCN1CCC(N(Cc2ccc(-c3ccc(Cl)cc3)cc2)C(=O)Cn2c(CCc3cccc(F)c3F)cc(=O)c3ccccc32)CC1`, the XC50 is 703 nM.

The molecule `CC1CC(C)CN(CCCNc2ccc(C(=O)Nc3ccc(C(F)(F)F)cc3)cc2[N+](=O)[O-])C1` (stereo unspecified) yielded an XC50 of 203 nM.

As to `Clc1ccc(CNC2CCN(CC3CCCCC3)CC2)cc1`, the XC50 worked out at 1110 nM.

The molecule `COc1ccc(CCNC(=O)c2cc3c(=O)n4cccc(C)c4nc3n(C)c2=N)cc1` gave an XC50 of 762 nM.

The molecule `O=C(/C=C/c1ccc(Cl)c(Cl)c1)NCCCCCN1CCCN(C(=O)Nc2ccc(F)c(F)c2)CC1` gave an XC50 of 803 nM.

In the case of `FC(F)(F)c1ccc2[nH]c(-c3ccc(-c4cccc(CNCCc5ccncc5)c4)s3)nc2c1`, the XC50 amounted to 117 nM.

The molecule `C#CCN1CCC2=C(C1)c1c(O)cc(C(C)C(C)CCc3ccc(F)cc3)cc1OC2(C)C` (stereo unspecified) showed an XC50 of 175 nM.

As for `CCCN1CCN(CCCNC(=O)c2cc3c(-c4ccc(Cl)cc4)nn(C)c3s2)CC1`, the XC50 worked out at 1100 nM.

Consider `CC(C)C[C@H](NC(=O)c1ccc(OCCN2CCOCC2)cc1)C(=O)NC(/C=N/N1CCCC1=O)C(C)C` (stereo partly specified), for which the XC50 amounted to 248 nM.

Molecule `COc1cc(Cc2cnc(N)nc2N)cc(OCCCc2cc(OCc3ccccc3)no2)c1OC` gave an XC50 of 1870 nM.

`CN1CCN(Cc2ccc(OCc3cccc(COc4ccc(CN5CCN(C)CC5)cc4I)c3)c(I)c2)CC1` showed an XC50 of 1010 nM.

`Cc1cc(=NN=Cc2ccccc2F)c2cc(F)ccc2[nH]1`: the XC50 worked out at 299 nM.

For the molecule `CCCC(C)Nc1nc(C)cc(N[C@@H](Cc2ccccc2)C(=O)NCCc2ccccc2)n1` (stereo partly specified), the XC50 turned out to be 954 nM.

`CCCn1c(=N)c(C(=O)NCCc2ccccc2)cc2c(=O)n3cccc(C)c3nc21` yielded an XC50 of 1120 nM.

`Nc1nc(N)c2c(ccc3c2cnn3Cc2cccnc2)n1` registered an XC50 of 48.1 nM.

Molecule `Cc1c(C)n(C2CCCCC2)c2ncnc(OC3CCN(CC(=O)NC4CC4)CC3)c12` gave an XC50 of 1240 nM.

For `Cc1ccc2c(c1C)NC(=O)C21NN=C(c2ccccc2)S1` (stereo unspecified), the XC50 is 749 nM.

On to `COc1cc2nc(N3CCC(CNC(=O)c4ccc(-c5ccc(C#N)cc5C)cc4)CC3)nc(N)c2cc1OC`, for which the XC50 is 180 nM.

`FC(F)(F)c1ccc2[nH]c(-c3cccc(-c4cccc(CNCc5cnn(-c6ccccc6)n5)c4)c3)nc2c1` showed an XC50 of 552 nM.

`CCCCOc1ccc(-c2nc3ccccc3[nH]2)cc1` came in with an XC50 of 865 nM.

The molecule `c1cncc(CCNCc2cccc(-c3ccc(-c4nc5ccccc5[nH]4)s3)c2)c1` yielded an XC50 of 202 nM.

As to `O=C(Nc1cn(-c2ccc(OCc3cccc(F)c3)c(Cl)c2)c2ncncc12)c1ccncc1`, the XC50 came to 171 nM.

In turn, `Clc1ccc(-c2ccc(C=NNc3nc(=Nc4ccccc4)[nH]c(=Nc4ccccc4)[nH]3)o2)cc1Cl` displayed an XC50 of 736 nM.

Consider `CC(=O)Nc1ccc(C(=O)Nc2ccc(-c3cccc(-c4nc5cc(C(F)(F)F)ccc5[nH]4)c3)cc2)cn1`, for which the XC50 was 111 nM.

In turn, `Fc1ccc2[nH]c(-c3ccc(-c4ccc(CN5CCC(CCN6CCCCC6)CC5)cc4)s3)nc2c1` registered an XC50 of 142 nM.

`Cc1cc(N(C)CCCN(C)C)nc(Nc2ccc(Br)cc2)n1` registered an XC50 of 643 nM.

For `CC(C)CNCc1ccc(OCc2cccc(COc3ccc(CNCC(C)C)cc3I)c2)c(I)c1`, the XC50 was 772 nM.

For `Cc1nc2nc(N)nc(N)c2c(C)c1Cc1cccc(C(N)=O)c1`, the XC50 amounted to 1080 nM.

As for `O=C(NC1CCN(Cc2ccccc2)CC1)c1cc(-c2ccncc2)c(-c2ccc(Cl)c(O)c2)o1`, the XC50 amounted to 407 nM.

`CC(C)N(Cc1ccc(-c2ccc(C(F)(F)F)cc2)cc1)C(=O)Cn1c(SCc2cccc(F)c2F)cc(=O)c2cc(CN3CCCCC3)ccc21` had an XC50 of 872 nM.

In turn, `Cc1[nH]c(C)c(-c2ccc(Br)cc2)c(=O)c1Cl` displayed an XC50 of 844 nM.

`CCC(C)NS(=O)(=O)c1ccc2nc(Nc3ccc(C)cc3)n(C3CCCCC3)c2c1` (stereo unspecified) returned an XC50 of 462 nM.

The molecule `Cc1nc(C)c(CC(=O)Nc2ccc(-c3cccc(-c4nc5cccc(C)c5[nH]4)c3)cc2)s1` yielded an XC50 of 596 nM.

Turning to `N#Cc1ccc(N[C@@H](CC2CCCCC2)C(=O)N[C@@H]2CCCc3ccccc32)c2ccccc12`, the XC50 was found to be 728 nM.

Take `CC(C)c1ccc(C2CCN(CCCCNC(=O)c3ccc(NC(=O)c4ccc(C(F)(F)F)cc4)cc3)CC2)c(O)c1`: the XC50 amounted to 579 nM.

Consider `COc1ccc(/C=C/C(=O)Nc2ccc(-c3ccncc3)cc2)cc1CCCN(C)C`, for which the XC50 is 753 nM.

For `O=C(Nc1ccc(Cl)c(C(F)(F)F)c1)c1ccc(C(=O)Nc2ccc(Cl)c(C(F)(F)F)c2)cc1`, the XC50 worked out at 1000 nM.

In the case of `CCCCOc1cc(C)nc2ccc(NC(=O)COCC(=O)Nc3ccc4nc(C)cc(OCCCC)c4c3)cc12`, the XC50 was determined as 1000 nM.

In turn, `CC(C)(C)c1ccc(CN2CCCCC(NC(=O)c3cc(-c4ccccc4Cl)cs3)C2)cc1` (stereo unspecified) displayed an XC50 of 1120 nM.

As for `O=C(Nc1cccc(C(F)(F)F)c1)c1ccc(S(=O)(=O)NCC2CCCN(CC3CCCCC3)C2)cc1` (stereo unspecified), the XC50 came to 899 nM.

On to `Nc1c2c(nc3ccc(NC(=O)c4ccc([N+](=O)[O-])cc4)cc13)CCCC2`, for which the XC50 came out at 237 nM.

For the molecule `CCCCN(CCCC)CCCCNc1c2ccccc2nc2ccccc12`, the XC50 was determined as 148 nM.

`CC(=O)N(Cc1nc(-c2cc(C(F)(F)F)cc(C(F)(F)F)c2)cs1)c1c(C)cccc1C` had an XC50 of 107 nM.

In the case of `O=C(Nc1ccc(NC2=NCCN2)cc1)c1ccc(C(=O)Nc2ccc(NC3=NCCN3)cc2)cc1`, the XC50 worked out at 649 nM.

`COc1ccc(Cl)cc1N1CCN(CCCNC(=O)c2ccc(-c3nc4cnccc4[nH]3)c(Br)c2)CC1` came in with an XC50 of 1150 nM.

Take `Cc1ccc2c(c1)c(-c1ccccc1)c(-c1ccccc1)n2CC(O)CN1CCN(CC=Cc2ccccc2)CC1` (stereo unspecified): the XC50 turned out to be 782 nM.

Turning to `CC(=O)Nc1ccc(COc2ccc(Nc3ccnc4cc(-c5ccccn5)ccc34)cc2)cc1`, the XC50 stood at 196 nM.

In the case of `CC(C)(CN)c1cc(-c2ccc(Cl)c(O)c2)c(-c2ccncc2)o1`, the XC50 came out at 1140 nM.

Take `NCCCCc1c(-c2ccc(Cl)c(Cl)c2)[nH]c2ccc(Cl)cc12`: the XC50 turned out to be 912 nM.

On to `CCNC(=O)c1ccc(-n2nc(C)cc2-c2ccccc2)cc1`, for which the XC50 came to 1120 nM.

For `O=C(Nc1ccc(Cl)cc1)N[C@H]1CCN(Cc2ccc(OCCCN3CCCCC3)cc2)C1`, the XC50 was found to be 671 nM.

Take `CC(C)NCc1cccc(-c2cccc(NC(=O)c3cccc(Cl)c3)c2)c1`: the XC50 was 592 nM.

In the case of `COCCNCc1ccc(-c2ccc3c(Nc4ccc(Cl)cc4F)ccnc3c2)o1`, the XC50 worked out at 206 nM.

Take `CC(=NNC(S)=NCCc1ccccn1)c1ccccn1`: the XC50 was found to be 319 nM.

Regarding `CCc1cccc(OCC2CCCN(c3ccc(C(=O)NC4CC4)cn3)C2)c1` (stereo unspecified), the XC50 was 1440 nM.

Consider `COC(=O)c1ccc(OCC(O)CO)cc1O` (stereo unspecified), for which the XC50 came to 738 nM.

As for `COc1ccc(-c2ccc(NC(=O)c3cccc(Cl)c3)cc2)cc1CN(C)CCN(C)C`, the XC50 was 782 nM.

As to `CCOC(=O)NCCSC(C)(C)[C@H](NC(=O)[C@H](Cc1cc2ccccc2s1)[C@H](CC)N(O)C=O)C(=O)Nc1nccs1`, the XC50 was determined as 296 nM.

The molecule `CCC(C)(CC)C(=O)n1ncc2c3c(N)nc(N)nc3ccc21` showed an XC50 of 6 nM.

The molecule `Cc1cc(Br)cnc1CCCCNc1cc(=O)c2ccccc2[nH]1` registered an XC50 of 1160 nM.

Take `COc1ccc2nccc([C@@H](O)CN3CCC(NC(=O)C(c4ccccc4C)N4CCC(Cc5ccccc5)CC4)CC3)c2c1` (stereo partly specified): the XC50 turned out to be 261 nM.

For the molecule `CCOc1cc(Cl)c(C(C)NC(=O)c2ccccc2)cc1OCC` (stereo unspecified), the XC50 was 875 nM.

In the case of `N#Cc1ccc(CN2CCCN(Cc3cccc(NC(=O)c4ccc(-c5ccccc5)cc4)c3)CC2)cc1`, the XC50 amounted to 1020 nM.

As to `Cc1cc(Cl)ccc1OC(C)C(=O)N1CCc2ccccc21` (stereo unspecified), the XC50 is 668 nM.

As for `CCOc1ccc2c(=NN=Cc3cc(OC)c(OC)cc3OC)cc(C)[nH]c2c1`, the XC50 turned out to be 997 nM.

For `CC(C)c1ccc(NC(=O)c2cccc(CN3CCCN(Cc4cccc(O)c4)CC3)c2)cc1`, the XC50 stood at 772 nM.

Molecule `Cc1ccccc1-c1cc(=O)c2cc(NC(=O)c3cccs3)ccc2o1` gave an XC50 of 218 nM.

`COc1ccccc1CCNc1nccc(N[C@@H](Cc2ccccc2)C(=O)NCc2cccs2)n1`: the XC50 worked out at 871 nM.

`CN(C)c1nc2cc(-n3cnc4cc(-c5ccc(Cl)cc5)sc4c3=O)ccc2n1CCCN1CCCC1` gave an XC50 of 848 nM.

In turn, `O=C(NC1CCN(Cc2ccccc2)CC1)c1ccc(-c2nc3cc(Cl)c(Cl)cc3[nH]2)c(F)c1` displayed an XC50 of 736 nM.

For `O=C(Nc1cccc(CN2CCCN(Cc3ccc(F)cc3)CC2)c1)c1ccc(Cl)c(Cl)c1`, the XC50 came out at 958 nM.

`CCOc1cc(C(=O)NC2CC(C)(C)N(C)C(C)(C)C2)ccc1-c1nc2cc(Cl)c(Cl)cc2[nH]1` came in with an XC50 of 861 nM.

`N#Cc1cc(C(=O)Nc2ccccc2)c(N)nc1SCC(=O)Nc1ccc(Br)cc1`: the XC50 came to 1100 nM.

With `CCOc1ccccc1C=CC(=O)Nc1ccc2nc(N3CCN(C)CC3)cc(C)c2c1`, the XC50 turned out to be 273 nM.

As for `O=C(O)c1cccnc1Sc1ccc(Cl)cc1`, the XC50 worked out at 830 nM.

In the case of `C=CCn1c(=N)n(CC(O)c2ccc(Cl)c(Cl)c2)c2ccccc21` (stereo unspecified), the XC50 was 338 nM.

On to `CCc1cn2c3c(cc(C(=O)N[C@@H](Cc4ccccc4)[C@H](O)CNC(C)C)cc13)N(C)S(=O)(=O)C2`, for which the XC50 stood at 317 nM.

Take `CN1CCN(c2cc(-c3cccnc3)nc(-c3ccncc3)n2)CC1`: the XC50 worked out at 554 nM.

With `COc1ccc(-c2nnc(Sc3ccc(C#N)c([N+](=O)[O-])c3)n2CCC(C)C)cc1`, the XC50 worked out at 1110 nM.

`COc1cccc2cc(C(=O)N[C@@H](CC(C)C)C(=O)N[C@H](C=NNC(=O)OC(C)(C)C)Cc3ccccc3)oc12` gave an XC50 of 304 nM.

In turn, `Cc1cccc2nc(-c3cccc(-c4cccc(NC(=O)NCc5ccccc5)c4)c3)[nH]c12` had an XC50 of 521 nM.

As to `CC(=O)N1Cc2ccccc2C1=O`, the XC50 was 522 nM.

As for `Cc1cc(C)n2nc(C(=O)Nc3cc(C(F)(F)F)ccc3N3CCOCC3)nc2n1`, the XC50 came out at 119 nM.

`CC(=O)Nc1cccc(-c2cn(-c3ccc(OCc4cccc(F)c4)c(Cl)c3)c3ncncc23)c1` came in with an XC50 of 70.9 nM.

`CCNc1cc(C(=O)N[C@@H](Cc2ccccc2)[C@H](O)CNCCc2cccc(C(F)(F)F)c2)cc(N2CCCC2=O)c1` gave an XC50 of 879 nM.
